Experimental data from PMC8550792, “Evolution of kinase polypharmacology across HSP90 drug discovery” (Cell Chemical Biology, 2021).
Like-named read-outs stand apart in the source and are kept apart here. Blank lines part the entries; values can stand above or below the compound they belong to.

How the values were obtained:
[1] = molecular target: T1, FGR (Homo sapiens, UniProt P09769); assay: HotSpot in vitro kinase radiometric assay; assay type: biochemical; settings: 10uM, ATP 50 uM, Data 1, Data 2
T1 construct: purchased Reaction Biology (HotSpot contract assay)

[2] = molecular target: T2, FYN (Homo sapiens, UniProt P06241); assay: HotSpot in vitro kinase radiometric assay; assay type: biochemical; settings: 10uM, ATP 30 uM, Data 1, Data 2
T2 construct: purchased Reaction Biology (HotSpot contract assay)

[3] = molecular target: T3, BLK (Homo sapiens, UniProt P51451); assay: HotSpot in vitro kinase radiometric assay; assay type: biochemical; settings: 10uM, ATP 10 uM, Data 1, Data 2
T3 construct: purchased Reaction Biology (HotSpot contract assay)
Description: (§1) Accordingly, we selected five additional representative HSP90 inhibitors, at least one from each chemical class, including both synthetic inhibitors and natural products. […]
(§2) This radioisotope binding assay was designed to directly detect the true product without the use of modified substrates, coupling enzymes, or detection antibodies thus enabling to directly measure inhibition of catalytic activity. Test or control compounds were incubated with kinase, substrate, cofactors, and radioisotope-labeled ATP (32P-ɣ-ATP or 33P-ɣ-ATP). The reaction mixtures were then spotted onto filter papers, which bind the radioisotope-labeled catalytic product.

[4] = molecular target: T4, LYN B (Homo sapiens, UniProt P07948); assay: HotSpot in vitro kinase radiometric assay; assay type: biochemical; settings: 10uM, ATP 20 uM, Data 1, Data 2
T4 construct: purchased Reaction Biology (HotSpot contract assay)
Description: as §1, §2

[5] = molecular target: T5, c-Src (Homo sapiens, UniProt P12931); assay: HotSpot in vitro kinase radiometric assay; assay type: biochemical; settings: 10uM, ATP 15 uM, Data 1, Data 2
T5 construct: purchased Reaction Biology (HotSpot contract assay)
Description: as §1, §2

[6] = molecular target: T6, PDK4/PDKH4 (Homo sapiens, UniProt Q16654); assay: HotSpot in vitro kinase radiometric assay; assay type: biochemical; settings: 10uM, ATP 30 uM, Data 1, Data 2
T6 construct: purchased Reaction Biology (HotSpot contract assay)
Description: as §1, §2

[7] = molecular target: T7, PASK (Homo sapiens, UniProt Q96RG2); assay: HotSpot in vitro kinase radiometric assay; assay type: biochemical; settings: 10uM, ATP 50 uM, Data 1, Data 2
T7 construct: purchased Reaction Biology (HotSpot contract assay)
From the text: (§3) Accordingly, we selected five additional representative HSP90 inhibitors, at least one from each chemical class, including both synthetic inhibitors and natural products.
(§4) Accordingly, we screened the hit compound and the two leads for kinase off-target inhibition using the 16-kinase panel and the same in vitro catalytic assay used previously.
as §2

[8] = molecular target: T8, TRKA (Homo sapiens, UniProt P04629); assay: HotSpot in vitro kinase radiometric assay; assay type: biochemical; settings: 10uM, ATP 100 uM, Data 1, Data 2
T8 construct: purchased Reaction Biology (HotSpot contract assay)
From the text: as §3, §4, §2

[9] = molecular target: T9, YES/YES1 (Homo sapiens, UniProt P07947); assay: HotSpot in vitro kinase radiometric assay; assay type: biochemical; settings: 10uM, ATP 50 uM, Data 1, Data 2
T9 construct: purchased Reaction Biology (HotSpot contract assay)

[10] = molecular target: ABL1 (Homo sapiens, UniProt P00519); assay: HotSpot in vitro kinase radiometric assay; assay type: biochemical; set-up: purchased Reaction Biology (HotSpot contract assay); settings: 10uM, ATP 40 uM, Data 1, Data 2
[11] = system: TRAP1; set-up: method as in ChEMBL23 (accessed: 23/08/2018); settings: average of reported values; ref ChEMBL23 (accessed: 23/08/2018); cited from earlier work
[12] = molecular target: DDR1 (Homo sapiens, UniProt Q08345); assay: HotSpot in vitro kinase radiometric assay; assay type: biochemical; set-up: purchased Reaction Biology (HotSpot contract assay)
[13] = molecular target: T10, TRKC (Homo sapiens, UniProt Q16288); assay: HotSpot in vitro kinase radiometric assay; assay type: biochemical; settings: 10uM, ATP 100 uM, Data 1, Data 2
T10 construct: purchased Reaction Biology (HotSpot contract assay)

[14] = molecular target: T11, PEAK1 (Homo sapiens, UniProt Q9H792); assay: HotSpot in vitro kinase radiometric assay; assay type: biochemical; settings: 10uM, ATP 30 uM, Data 1, Data 2
T11 construct: purchased Reaction Biology (HotSpot contract assay)

[15] = molecular target: T12, LCK (Homo sapiens, UniProt P06239); assay: HotSpot in vitro kinase radiometric assay; assay type: biochemical; settings: 10uM, ATP 15 uM, Data 1, Data 2
T12 construct: purchased Reaction Biology (HotSpot contract assay)

[16] = system: HSP90AB1; set-up: method as in ChEMBL23 (accessed: 23/08/2018); settings: average of reported values; ref ChEMBL23 (accessed: 23/08/2018); cited from earlier work
[17] = system: 16-kinase panel; assay: 16-kinase panel screening, in vitro radiometric assay; assay type: biochemical, human; settings: 10 μM
[18] = molecular target: T13, ABL2/ARG (Homo sapiens, UniProt P42684); assay: HotSpot in vitro kinase radiometric assay; assay type: biochemical; settings: 10uM, ATP 30 uM, Data 1, Data 2
T13 construct: purchased Reaction Biology (HotSpot contract assay)

[19] = molecular target: T14, PDK2/PDHK2 (Homo sapiens, UniProt Q15119); assay: HotSpot in vitro kinase radiometric assay; assay type: biochemical; settings: PDK2/PDHK2, 10uM, ATP 15 uM, Data 1, Data 2
T14 construct: purchased Reaction Biology (HotSpot contract assay)
Description: as §1, §2

[20] = system: 382 unique human kinases; assay: biochemical; assay type: biochemical; settings: cutoff of >85% inhibition at 10 μM; luminespib and ganetespib large kinome panel, others 16-kinase panel
[21] = FGR, read-out: % Enzyme Activity (relative to DMSO controls)
[22] = FYN, read-out: % Enzyme Activity (relative to DMSO controls)
[23] = BLK, read-out: % Enzyme Activity (relative to DMSO controls)
[24] = LYN B, read-out: % Enzyme Activity (relative to DMSO controls)
[25] = c-Src, read-out: % Enzyme Activity (relative to DMSO controls)
[26] = PDK4/PDKH4, read-out: % Enzyme Activity (relative to DMSO controls)
[27] = PASK, read-out: % Enzyme Activity (relative to DMSO controls)
[28] = TRKA, read-out: % Enzyme Activity (relative to DMSO controls)
[29] = YES/YES1, read-out: % Enzyme Activity (relative to DMSO controls)
[30] = ABL1, read-out: % Enzyme Activity (relative to DMSO controls)
[31] = DDR1, 10uM, ATP 100 uM, Data 1, Data 2, read-out: % Enzyme Activity (relative to DMSO controls)
[32] = TRKC, read-out: % Enzyme Activity (relative to DMSO controls)
[33] = PEAK1, read-out: % Enzyme Activity (relative to DMSO controls)
[34] = LCK, read-out: % Enzyme Activity (relative to DMSO controls)
[35] = ABL2/ARG, read-out: % Enzyme Activity (relative to DMSO controls)

T5 sequence (P12931 whole entry): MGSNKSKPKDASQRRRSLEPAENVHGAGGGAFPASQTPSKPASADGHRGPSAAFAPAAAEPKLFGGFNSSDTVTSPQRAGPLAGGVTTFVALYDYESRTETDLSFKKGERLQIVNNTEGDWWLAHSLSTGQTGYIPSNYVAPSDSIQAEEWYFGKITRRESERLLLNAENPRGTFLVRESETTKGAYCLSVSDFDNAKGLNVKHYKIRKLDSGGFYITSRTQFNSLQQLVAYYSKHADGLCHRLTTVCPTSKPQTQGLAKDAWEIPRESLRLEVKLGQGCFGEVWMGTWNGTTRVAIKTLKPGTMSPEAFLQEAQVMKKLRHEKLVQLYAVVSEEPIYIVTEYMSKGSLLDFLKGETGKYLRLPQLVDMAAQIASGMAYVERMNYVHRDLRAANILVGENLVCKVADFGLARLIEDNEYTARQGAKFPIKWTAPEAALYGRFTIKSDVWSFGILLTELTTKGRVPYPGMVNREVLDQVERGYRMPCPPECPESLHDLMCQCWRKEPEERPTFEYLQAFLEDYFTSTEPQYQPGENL
T11 sequence (Q9H792 whole entry): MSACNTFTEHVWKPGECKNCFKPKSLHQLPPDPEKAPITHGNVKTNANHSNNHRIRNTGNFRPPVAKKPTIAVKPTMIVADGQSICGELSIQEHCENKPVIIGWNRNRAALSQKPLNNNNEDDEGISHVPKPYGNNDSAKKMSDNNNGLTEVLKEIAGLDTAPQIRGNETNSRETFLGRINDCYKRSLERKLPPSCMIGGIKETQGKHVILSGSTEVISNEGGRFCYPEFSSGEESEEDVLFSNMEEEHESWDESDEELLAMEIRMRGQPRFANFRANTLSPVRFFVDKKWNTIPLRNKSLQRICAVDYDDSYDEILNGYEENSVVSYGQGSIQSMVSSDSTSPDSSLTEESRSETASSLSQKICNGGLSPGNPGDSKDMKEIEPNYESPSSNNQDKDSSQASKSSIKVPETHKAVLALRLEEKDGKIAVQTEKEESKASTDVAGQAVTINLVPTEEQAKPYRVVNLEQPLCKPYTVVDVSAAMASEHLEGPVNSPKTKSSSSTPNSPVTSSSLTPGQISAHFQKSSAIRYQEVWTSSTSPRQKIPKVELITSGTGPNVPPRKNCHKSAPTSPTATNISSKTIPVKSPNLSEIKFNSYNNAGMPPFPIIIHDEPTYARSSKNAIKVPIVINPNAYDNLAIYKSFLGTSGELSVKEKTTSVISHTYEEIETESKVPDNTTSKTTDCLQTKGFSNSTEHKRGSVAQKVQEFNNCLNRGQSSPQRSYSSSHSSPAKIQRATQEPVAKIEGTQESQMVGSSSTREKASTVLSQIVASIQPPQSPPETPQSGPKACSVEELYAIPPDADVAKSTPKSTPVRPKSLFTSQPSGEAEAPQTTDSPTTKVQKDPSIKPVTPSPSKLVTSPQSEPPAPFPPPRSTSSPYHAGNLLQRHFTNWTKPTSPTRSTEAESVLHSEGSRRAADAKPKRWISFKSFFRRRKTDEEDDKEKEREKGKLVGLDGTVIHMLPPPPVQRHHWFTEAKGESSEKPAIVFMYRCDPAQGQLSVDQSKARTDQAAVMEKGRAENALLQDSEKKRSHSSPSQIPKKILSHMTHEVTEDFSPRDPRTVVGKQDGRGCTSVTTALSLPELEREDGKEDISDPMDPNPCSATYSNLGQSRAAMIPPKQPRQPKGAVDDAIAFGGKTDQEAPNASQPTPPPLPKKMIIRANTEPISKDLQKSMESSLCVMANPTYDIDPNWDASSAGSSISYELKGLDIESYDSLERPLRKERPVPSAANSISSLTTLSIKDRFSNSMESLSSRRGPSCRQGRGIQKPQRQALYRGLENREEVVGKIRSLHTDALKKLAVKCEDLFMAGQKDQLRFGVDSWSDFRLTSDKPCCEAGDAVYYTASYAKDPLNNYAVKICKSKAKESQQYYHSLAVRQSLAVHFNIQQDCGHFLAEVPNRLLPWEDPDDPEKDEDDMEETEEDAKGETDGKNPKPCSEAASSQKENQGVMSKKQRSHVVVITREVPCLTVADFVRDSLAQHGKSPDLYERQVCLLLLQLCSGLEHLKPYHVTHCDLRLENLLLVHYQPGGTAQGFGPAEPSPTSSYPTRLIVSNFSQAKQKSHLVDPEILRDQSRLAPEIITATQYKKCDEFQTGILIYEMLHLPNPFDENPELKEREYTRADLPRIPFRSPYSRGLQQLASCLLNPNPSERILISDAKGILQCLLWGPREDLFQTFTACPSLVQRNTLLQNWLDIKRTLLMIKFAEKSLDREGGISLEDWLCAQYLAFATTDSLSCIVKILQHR
T1 sequence (P09769 whole entry): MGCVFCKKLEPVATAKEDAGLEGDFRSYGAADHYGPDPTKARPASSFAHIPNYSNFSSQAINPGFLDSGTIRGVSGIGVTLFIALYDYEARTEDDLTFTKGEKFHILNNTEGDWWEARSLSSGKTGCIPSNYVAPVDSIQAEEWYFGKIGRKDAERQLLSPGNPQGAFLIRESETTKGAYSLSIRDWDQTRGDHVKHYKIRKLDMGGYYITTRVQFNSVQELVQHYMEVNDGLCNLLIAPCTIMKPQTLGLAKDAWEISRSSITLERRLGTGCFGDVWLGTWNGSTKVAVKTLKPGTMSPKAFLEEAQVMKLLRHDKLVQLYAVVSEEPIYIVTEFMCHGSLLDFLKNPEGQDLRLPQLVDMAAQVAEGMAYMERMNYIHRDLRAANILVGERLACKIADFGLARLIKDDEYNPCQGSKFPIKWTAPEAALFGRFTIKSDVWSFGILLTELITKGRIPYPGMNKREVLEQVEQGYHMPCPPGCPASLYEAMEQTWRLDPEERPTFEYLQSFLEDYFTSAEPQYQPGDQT
T10 sequence (Q16288 32-839): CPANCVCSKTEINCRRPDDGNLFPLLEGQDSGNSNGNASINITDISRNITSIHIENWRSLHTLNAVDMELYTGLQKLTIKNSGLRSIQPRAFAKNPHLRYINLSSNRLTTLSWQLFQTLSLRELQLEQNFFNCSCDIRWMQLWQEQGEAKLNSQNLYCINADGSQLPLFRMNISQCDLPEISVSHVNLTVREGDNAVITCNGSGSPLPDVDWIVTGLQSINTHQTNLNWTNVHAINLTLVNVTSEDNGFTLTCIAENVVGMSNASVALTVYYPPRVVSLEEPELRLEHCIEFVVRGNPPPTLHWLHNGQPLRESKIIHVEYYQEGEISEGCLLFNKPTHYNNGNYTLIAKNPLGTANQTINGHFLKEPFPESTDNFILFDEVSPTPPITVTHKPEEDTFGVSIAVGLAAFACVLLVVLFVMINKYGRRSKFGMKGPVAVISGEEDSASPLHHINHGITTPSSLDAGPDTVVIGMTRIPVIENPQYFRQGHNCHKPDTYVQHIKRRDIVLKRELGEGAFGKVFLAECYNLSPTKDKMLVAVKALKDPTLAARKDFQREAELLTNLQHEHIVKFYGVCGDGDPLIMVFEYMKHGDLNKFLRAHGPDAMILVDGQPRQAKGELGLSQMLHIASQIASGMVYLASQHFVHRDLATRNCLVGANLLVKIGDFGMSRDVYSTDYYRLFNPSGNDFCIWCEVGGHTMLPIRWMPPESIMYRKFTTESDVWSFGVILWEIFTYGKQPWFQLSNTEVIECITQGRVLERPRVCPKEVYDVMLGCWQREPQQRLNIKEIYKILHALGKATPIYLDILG
T12 sequence (P06239 whole entry): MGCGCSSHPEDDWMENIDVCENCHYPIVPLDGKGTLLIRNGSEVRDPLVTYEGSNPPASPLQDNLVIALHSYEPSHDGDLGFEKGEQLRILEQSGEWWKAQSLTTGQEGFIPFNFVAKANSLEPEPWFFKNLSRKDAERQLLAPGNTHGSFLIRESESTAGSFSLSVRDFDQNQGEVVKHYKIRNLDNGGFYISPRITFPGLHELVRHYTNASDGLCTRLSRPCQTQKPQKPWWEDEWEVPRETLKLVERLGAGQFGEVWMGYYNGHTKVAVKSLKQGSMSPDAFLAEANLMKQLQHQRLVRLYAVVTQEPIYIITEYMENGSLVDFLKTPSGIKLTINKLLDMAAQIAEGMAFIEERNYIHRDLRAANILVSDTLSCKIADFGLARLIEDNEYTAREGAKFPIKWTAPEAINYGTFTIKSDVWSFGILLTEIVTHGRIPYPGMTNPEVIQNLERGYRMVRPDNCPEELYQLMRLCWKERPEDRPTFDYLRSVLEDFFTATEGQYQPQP
T3 sequence (P51451 whole entry): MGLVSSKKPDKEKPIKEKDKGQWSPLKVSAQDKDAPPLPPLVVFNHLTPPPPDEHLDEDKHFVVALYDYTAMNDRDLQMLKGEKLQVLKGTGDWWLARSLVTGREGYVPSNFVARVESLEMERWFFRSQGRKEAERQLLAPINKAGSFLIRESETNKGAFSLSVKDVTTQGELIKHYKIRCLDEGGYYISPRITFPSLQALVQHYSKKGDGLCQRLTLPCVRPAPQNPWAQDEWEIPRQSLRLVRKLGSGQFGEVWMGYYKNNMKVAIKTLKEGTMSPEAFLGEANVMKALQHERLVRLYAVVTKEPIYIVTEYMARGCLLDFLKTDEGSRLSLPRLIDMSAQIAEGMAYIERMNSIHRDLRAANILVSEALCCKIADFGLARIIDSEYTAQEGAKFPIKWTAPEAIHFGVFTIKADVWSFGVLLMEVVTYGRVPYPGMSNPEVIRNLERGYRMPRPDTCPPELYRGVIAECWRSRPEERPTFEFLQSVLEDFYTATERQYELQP
T6 sequence (Q16654 whole entry): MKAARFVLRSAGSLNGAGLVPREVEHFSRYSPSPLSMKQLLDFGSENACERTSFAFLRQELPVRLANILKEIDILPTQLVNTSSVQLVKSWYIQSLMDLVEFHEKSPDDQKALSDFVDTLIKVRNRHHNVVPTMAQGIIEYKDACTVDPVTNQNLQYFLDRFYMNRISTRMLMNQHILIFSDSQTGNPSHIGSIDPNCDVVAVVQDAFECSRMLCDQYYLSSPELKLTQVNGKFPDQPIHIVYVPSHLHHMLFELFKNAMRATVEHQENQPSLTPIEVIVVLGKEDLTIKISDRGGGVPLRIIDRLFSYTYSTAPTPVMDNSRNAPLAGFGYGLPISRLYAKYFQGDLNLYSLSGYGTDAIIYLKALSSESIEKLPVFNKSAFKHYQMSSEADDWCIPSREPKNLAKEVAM

SMILES: COC1=C2C[C@@H](C)C[C@H](OC)[C@H](O)[C@@H](C)/C=C(\C)[C@H](OC(N)=O)[C@@H](OC)/C=C\C=C(/C)C(=O)NC(=CC1=O)C2=O [Geldanamycin]
remaining activity at 10 µM [1, 21]: 113% | remaining activity at 10 µM [2, 22]: 121% | remaining activity at 10 µM [3, 23]: 121% | remaining activity at 10 µM [4, 24]: 111% | remaining activity at 10 µM [5, 25]: 110% | remaining activity at 10 µM [6, 26]: 100% | remaining activity at 10 µM [7, 27]: 106% | remaining activity at 10 µM [8, 28]: 104% | remaining activity at 10 µM [9, 29]: 103% | remaining activity at 10 µM [10, 30]: 100% | pActivity, TRAP1 [11]: 6.18 | remaining activity at 10 µM [12, 31]: 104% | remaining activity at 10 µM [13, 32]: 99.5% | remaining activity at 10 µM [14, 33]: 108% | remaining activity at 10 µM [15, 34]: 125% | pActivity, HSP90AB1 [16]: 6.99 | activity against the 16-kinase panel [17]: inactive | remaining activity at 10 µM [18, 35]: 115%

% Enzyme Activity (relative to DMSO controls) ([1]; FGR): 101.62% | remaining activity at 10 µM [1, 21]: 102% | % Enzyme Activity (relative to DMSO controls) ([2]; FYN): 106.38% | remaining activity at 10 µM [2, 22]: 108% | % Enzyme Activity (relative to DMSO controls) ([3]; BLK): 107.96% | remaining activity at 10 µM [3, 23]: 108% | % Enzyme Activity (relative to DMSO controls) ([4]; LYN B): 109.85% | remaining activity at 10 µM [4, 24]: 110% | % Enzyme Activity (relative to DMSO controls) ([5]; c-Src): 97.5% | remaining activity at 10 µM [5, 25]: 98.7% | % Enzyme Activity (relative to DMSO controls) [19]: 75.57% | remaining activity at 10 µM ([19]; read-out: % Enzyme Activity (relative to DMSO controls)): 79.6% | % Enzyme Activity (relative to DMSO controls) ([6]; PDK4/PDKH4): 96.17% | remaining activity at 10 µM [6, 26]: 96.5% | % Enzyme Activity (relative to DMSO controls) ([7]; PASK): 105.18% | remaining activity at 10 µM [7, 27]: 100% | % Enzyme Activity (relative to DMSO controls) ([8]; TRKA): 99.91% | remaining activity at 10 µM [8, 28]: 105% | % Enzyme Activity (relative to DMSO controls) ([9]; YES/YES1): 99.53% | remaining activity at 10 µM [9, 29]: 99.6% | % Enzyme Activity (relative to DMSO controls) ([10]; ABL1): 103.3% | remaining activity at 10 µM [10, 30]: 105% | % Enzyme Activity (relative to DMSO controls) ([12]; DDR1, 10uM, ATP 100 uM, Data 1, Data 2): 87.99% | remaining activity at 10 µM [12, 31]: 106% | % Enzyme Activity (relative to DMSO controls) ([13]; TRKC): 89.51% | remaining activity at 10 µM [13, 32]: 93% | number of off-target kinases experimentally identified, In vitro binding (KinomeSCAN) [20]: 0 | % Enzyme Activity (relative to DMSO controls) ([14]; PEAK1): 102.81% | remaining activity at 10 µM [14, 33]: 104% | % Enzyme Activity (relative to DMSO controls) ([15]; LCK): 100% | remaining activity at 10 µM [15, 34]: 100% | activity against the 16-kinase panel [17]: inactive | % Enzyme Activity (relative to DMSO controls) ([18]; ABL2/ARG): 104.31% | remaining activity at 10 µM [18, 35]: 105%
SMILES: CC(C)c1cc(C(=O)N2Cc3ccc(CN4CCN(C)CC4)cc3C2)c(O)cc1O [Onalespib]
pActivity, HSP90AB1 [16]: 6.99

SMILES: CC1(C)CC(=O)c2c(C(F)(F)F)nn(-c3ccc(C(N)=O)c(N[C@H]4CC[C@H](O)CC4)c3)c2C1 [SNX-2112]
remaining activity at 10 µM ([1]; read-out: % Enzyme Activity (relative to DMSO controls), FGR): 111% | remaining activity at 10 µM ([2]; read-out: % Enzyme Activity (relative to DMSO controls), FYN): 113% | remaining activity at 10 µM ([3]; read-out: % Enzyme Activity (relative to DMSO controls), BLK): 116% | remaining activity at 10 µM ([4]; read-out: % Enzyme Activity (relative to DMSO controls), LYN B): 107% | remaining activity at 10 µM ([5]; read-out: % Enzyme Activity (relative to DMSO controls), c-Src): 99% | remaining activity at 10 µM ([6]; read-out: % Enzyme Activity (relative to DMSO controls), PDK4/PDKH4): 94.8% | remaining activity at 10 µM ([7]; read-out: % Enzyme Activity (relative to DMSO controls), PASK): 101% | remaining activity at 10 µM ([8]; read-out: % Enzyme Activity (relative to DMSO controls), TRKA): 107% | remaining activity at 10 µM ([9]; read-out: % Enzyme Activity (relative to DMSO controls), YES/YES1): 101% | remaining activity at 10 µM ([10]; read-out: % Enzyme Activity (relative to DMSO controls), ABL1): 109% | pActivity, TRAP1 [11]: 6.12 | remaining activity at 10 µM ([12]; read-out: % Enzyme Activity (relative to DMSO controls), DDR1, 10uM, ATP 100 uM, Data 1, Data 2): 93.4% | remaining activity at 10 µM ([13]; read-out: % Enzyme Activity (relative to DMSO controls), TRKC): 93% | number of off-target kinases experimentally identified, In vitro binding (KinomeSCAN) [20]: 0 | remaining activity at 10 µM ([14]; read-out: % Enzyme Activity (relative to DMSO controls), PEAK1): 105% | remaining activity at 10 µM ([15]; read-out: % Enzyme Activity (relative to DMSO controls), LCK): 114% | pActivity, HSP90AB1 [16]: 8.34 | activity against the 16-kinase panel [17]: inactive | remaining activity at 10 µM ([18]; read-out: % Enzyme Activity (relative to DMSO controls), ABL2/ARG): 114%

SMILES: CN[C@@H]1C[C@H]2O[C@@](C)([C@@H]1OC)n1c3ccccc3c3c4c(c5c6ccccc6n2c5c31)C(=O)NC4 [Staurosporine]
DDR1 - % activty [12]: 87.08% | HILLSLOPE ([12]; DDR1, single replicate curves): -1.76 | DDR1 - % activty ([12]; Stauro Conc. 1.25E-06 M): 0.78% | DDR1 - % activty ([12]; Stauro Conc. 1.95E-08 M): 5.70% | DDR1 - % activty ([12]; Stauro Conc. 2.00E-05 M): -0.41% | DDR1 - % activty ([12]; Stauro Conc. 3.05E-10 M): 101.08% | DDR1 - % activty ([12]; Stauro Conc. 4.88E-09 M): 36.56% | DDR1 - % activty ([12]; Stauro Conc. 7.63E-11 M): 100.44% | DDR1 - % activty ([12]; Stauro Conc. 7.81E-08 M): 1.19%
